Source: US10512700B2, “Radiohalide-labeled targeted diagnostics and therapeutics” (Memorial Sloan Kettering Cancer Center, priority 2014, dated 2019)
Several values for one entry are separate records, joined by “and”; a condition that tells them apart may be missing. Equal entries are not always repeated.

What was measured:
Blood half-life = assay type: in vivo, mouse; conditions: healthy athymic nude mice, tail vein
Description: The blood half-life was determined by measuring the activity in serial blood samplings. […] Measurements in counts per minute were calculated as the mean % ID/g. The blood half-life was calculated using Prism 6.0c (GraphPad Software, La Jolla, Calif.).
The blood half-life was calculated by measuring the activity of blood samples collected at different time points p.i. […] The collected blood was weighed and counted in a WIZARD^2 automatic γ-counter (PerkinElmer, Boston, Mass.). The blood half-life was calculated using Prism 6.0c (GraphPad Software, La Jolla, Calif.) using a two-phase decay least squares fitting method and expressed as % ID/g.

[1] = test system: U251 MG tumor bearing mice; assay: Biodistribution; assay type: in vivo, mouse; conditions: C-2d, i.v., 2 h post injection
Description: Biodistribution studies were conducted on female nude mice (8-10 weeks old and 20-25 g in weight, n=21) bearing U251 MG subcutaneous xenografts. The radiolabeled preparation (20-30 μCi of compound C-2d (^131I) in 200 μL of a solution 90% PBS 10% PEG300) was administrated via the lateral tail vein. The compound was allowed to circulate for 2 h post injection at which time mice were sacrificed and organs were harvested (n=3). The radioactive content in tissue of interest (blood, tumor, muscle, bone, liver, spleen, kidney, heart, lung, pancreas, brain, skin, small intestine, large intestine, stomach, tail, thyroid and feces) was measured on a Wizard 2470 Automatic Gamma Counter, and the tissue-associated activity was calculated as the mean % ID/g using the following formula: [(activity in the target organ/grams of tissue)/injected dose]×100%.
Biodistribution studies were performed in subcutaneous U251 MG xenograft bearing athymic nude mice (n=12). Mice were divided in two groups (blocked and unblocked) and administered with C-2f (approximately 50 μCi, 45 mCi/μmol in […], 10% EtOH in 0.9% sterile saline) via tail vein injection. […] Mice were sacrificed by CO2 asphyxiation at 120 min post injection and major organs were collected, weighed, and counted in a WIZARD^2 automatic γ-counter (PerkinElmer, Boston, Mass.). The radiopharmaceutical uptake was expressed as a percentage of injected dose per gram (% ID/g) using the following formula: [(activity in the target organ/grams of tissue)/injected dose]×100%.

With `O=C(c1ccc([131I])cc1)N1CCN(C(=O)c2cc(Cc3n[nH]c(=O)c4ccccc34)ccc2F)CC1` [C-2d (^131I)] as the compound, how does the alpha blood half-life (Blood half-life) read?
Its alpha blood half-life is 14.3 min.

And the “alpha blood half-life, share of phase” value (Blood half-life)?
The value was 96.25%.

And the beta blood half-life (Blood half-life)?
The beta blood half-life was 94.6 min.

And the “beta blood half-life, share of phase” value (Blood half-life)?
Its value is 3.75%.

And the weighted blood half-life (Blood half-life; 50 μCi)?
Its weighted blood half-life is 17.1 min.

What about the “% ID/g, Blood” value [1] of the same compound?
The value was 0.27 % ID/g.

And the “% ID/g, Bone” value [1]?
Its value is 0.07 % ID/g.

And the “% ID/g, Brain” value [1]?
The value was 0.011±0.003 % ID/g and 0.01 % ID/g.

And the “% ID/g, Feces” value [1]?
Its value is 4.34 % ID/g.

What about the “% ID/g, Heart” value [1] of the same compound?
Its value is 0.16 % ID/g.

What about the “% ID/g, Kidneys” value [1] of the same compound?
The value was 0.61 % ID/g.

And the “% ID/g, Large intestine” value [1]?
The value was 1.26 % ID/g.

What about the “% ID/g, Liver” value [1] of the same compound?
The value was 2.34 % ID/g.

What about the “% ID/g, Lung” value [1] of the same compound?
Its value is 0.28 % ID/g.

And the “% ID/g, Muscle” value [1]?
The value was 0.03±0.01 % ID/g and 0.03 % ID/g.

And the “% ID/g, Pancreas” value [1]?
The value was 0.15 % ID/g.

And the “% ID/g, Skin” value [1]?
The value was 0.25 % ID/g.

What about the “% ID/g, Small intestine” value [1] of the same compound?
The value was 11.70 % ID/g.

And the “% ID/g, Spleen” value [1]?
Its value is 0.40 % ID/g.

What about the “% ID/g, Stomach” value [1] of the same compound?
Its value is 0.88 % ID/g.

And the “% ID/g, Tail” value [1]?
The value was 0.60 % ID/g.

And the “% ID/g, Thyroid” value [1]?
Its value is 0.24 % ID/g.

And the “% ID/g, Tumor” value [1]?
Its value is 0.43±0.06 % ID/g and 0.43 % ID/g.
